These results are taken from ChEMBL document CHEMBL1136072, “Structural features of piperazinyl-linked ciprofloxacin dimers required for activity against drug-resistant strains of Staphylococcus aureus” (2003).

Holding throughout (type): functional
The subject of experiment [1] is Staphylococcus aureus. The experiment can be described thus: Minimum inhibitory concentration required against Staphylococcus aureus MRSA 494, methicillin resistant SA isolate.
Experiment [2] has as its system Staphylococcus aureus. Description: Minimum inhibitory concentration required against Staphylococcus aureus GISA 992, vancomycin-insensitive SA.
Experiment [3] concerns Staphylococcus aureus. The experiment can be described thus: Minimum inhibitory concentration required against Staphylococcus aureus SA-1199, wild-type isolate.
For experiment [4], the system named is Staphylococcus aureus. The experiment can be described thus: Minimum inhibitory concentration required against Staphylococcus aureus SA 1199B, constitutively overexpresses norA and harbors a topoisomerase IV A subunit substitution (A116E). Also on record: unit not given beside the values.
For experiment [5], the system named is Staphylococcus aureus. Description: Minimum inhibitory concentration required against Staphylococcus aureus SA 1199-3, laboratory-derived mutant of SA 1199 that inducibly overexpresses norA, no gyrase or topoisomerase IV mutations.

Molecules are shown by their SMILES. Bounds are passed on as bounds.

In the case of `CCn1cc(C(=O)O)c(=O)c2cnc(N3CCN(Cc4ccc(CN5CCN(c6cc7c(cc6F)c(=O)c(C(=O)O)cn7C6CC6)CC5)cc4)CC3)nc21`, the results for the MIC in the experiment on Staphylococcus aureus [1], against Staphylococcus aureus [2] and in the experiment with Staphylococcus aureus [3] were 0.125, 2 and under 0.03, respectively.
As for `O=C(O)c1cn(C2CC2)c2cc(N3CCN(/C=C/CN4CCNCC4)CC3)c(F)cc2c1=O`, the MIC in the experiment with Staphylococcus aureus [1] was 2; against Staphylococcus aureus [2], over 16; against Staphylococcus aureus [4], 2; with Staphylococcus aureus [3], 1; against Staphylococcus aureus [5], 2.
With `O=C(O)c1cn(C2CC2)c2cc(N3CCN(Cc4ccc(CN5CCN(c6ccccc6F)CC5)cc4)CC3)c(F)cc2c1=O`, the MIC with Staphylococcus aureus [2] is 16; with Staphylococcus aureus [3], 0.5.
In the case of `O=C(O)c1cn(C2CC2)c2cc(N3CCN(/C=C/CN4CCN(c5ccccc5F)CC4)CC3)c(F)cc2c1=O`, the MIC against Staphylococcus aureus [2] is on record as over 16; in the experiment with Staphylococcus aureus [3], 0.5.
Regarding `O=C(O)c1cn(C2CC2)c2cc(N3CCN(Cc4ccc(CN5CCNCC5)cc4)CC3)c(F)cc2c1=O`, the MIC against Staphylococcus aureus [1] is given as 0.25; in the experiment on Staphylococcus aureus [2], over 16; in the experiment with Staphylococcus aureus [4], 1; against Staphylococcus aureus [3] it was 0.5.
Consider `CCn1cc(C(=O)O)c(=O)c2cnc(N3CCNCC3)nc21` [PIPEMIDIC ACID], for which the MIC in the experiment with Staphylococcus aureus [2] and with Staphylococcus aureus [3] was over 16 each time.
On to `O=C(O)c1cn(C2CC2)c2cc(N3CCN(Cc4ccc(CN5CCN(c6cc7c(cc6F)c(=O)ccn7C6CC6)CC5)cc4)CC3)c(F)cc2c1=O`, for which the MIC is reported as 1 against Staphylococcus aureus [1]; over 16 in the experiment on Staphylococcus aureus [2]; 0.5 against Staphylococcus aureus [4]; 0.25 against Staphylococcus aureus [3]; 0.5 against Staphylococcus aureus [5].
On to `O=C(O)c1cn(C2CC2)c2cc(N3CCN(/C=C/CN4CCN(c5cc6c(cc5F)c(=O)c(C(=O)O)cn6C5CC5)CC4)CC3)c(F)cc2c1=O`, for which the MIC is listed as 0.125 against Staphylococcus aureus [1], over 16 with Staphylococcus aureus [2], 0.03 with Staphylococcus aureus [3] and 0.06 against Staphylococcus aureus [5].
As to `CN1CCN(c2cc3c(cc2F)c(=O)c(C(=O)O)cn3C2CC2)CC1`, the MIC was found to be 0.5 against Staphylococcus aureus [1]; 32 in the experiment on Staphylococcus aureus [2]; 8 with Staphylococcus aureus [4]; 0.125 with Staphylococcus aureus [3]; 1 with Staphylococcus aureus [5].
On the same counts, the results for `CN1CCN(c2cc3c(cc2F)c(=O)ccn3C2CC2)CC1` are over 16, over 16, over 16, over 16 and over 16.
As to `O=C(O)c1cn(C2CC2)c2cc(N3CCN(Cc4ccc(CN5CCN(c6cc7c(cc6F)c(=O)c(C(=O)O)cn7C6CC6)CC5)cc4)CC3)c(F)cc2c1=O`, the MIC against Staphylococcus aureus [2] stood at 4; against Staphylococcus aureus [3] it was 0.125.
